Patent publication US20240174657A1, “SELECTIVE ANGIOTENSIN II RECEPTOR LIGANDS” (priority 2021, published 2024)

What was measured:
Assay type in all cases: in vitro ADME
CYP3A4&5 = assay: CYP inhibition in human liver microsomes, testosterone substrate; conditions: probe testosterone, read-out: CYP3A4&5 testosterone Inh %
[1] = tested on: Cytochrome P450 enzymes (CYPs), especially CYP 2C9 and CYP 3A4; assay: CYP enzyme inhibition, statements in text without method; conditions: found during development
[2] = Metabolic hydrolysis, statement in text without method; conditions: found during development

For CCCCOC(=O)NS(=O)(=O)c1sc(CC(C)C)cc1-c1ccc(Cn2ccnc2)cc1 [Example C21, N-butyloxycarbonyl-3-(4-imidazol-1-ylmethylphenyl)-5-isobutylthiophene-2-sulfon-amide], the inhibition at 10 µM (CYP3A4&5) was 94%, the “inhibition of Cytochrome P450 enzymes (in words)” value [1] was “potent inhibitor” and the “metabolic hydrolysis (in words)” value [2] was “rapidly hydrolysed to an inactive sulfonamide metabolite”.
